Measurements reported in article PMC3997506, “Novel PPAR Pan Agonist, ZBH Ameliorates Hyperlipidemia and Insulin Resistance in High Fat Diet Induced Hyperlipidemic Hamster” (PLoS ONE, 2014).

What was measured:
[1] = biological target: T1, hPPARδ-LBD (Homo sapiens, UniProt Q03181); assay: Ligand binding assay with SPR (Biacore T100); details: steady state affinity fitting
T1 construct: purchased Cayman chemical
T1 sequence (Q03181 211-439 limits assumed): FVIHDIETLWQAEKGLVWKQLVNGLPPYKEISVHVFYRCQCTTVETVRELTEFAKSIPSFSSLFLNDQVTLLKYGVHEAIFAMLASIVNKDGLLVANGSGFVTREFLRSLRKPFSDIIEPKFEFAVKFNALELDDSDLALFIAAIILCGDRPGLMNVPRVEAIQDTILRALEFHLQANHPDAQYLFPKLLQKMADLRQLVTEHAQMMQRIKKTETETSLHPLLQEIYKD
Procedure: (§1) The binding affinities of ZBH for PPARα-LBD, PPARδ-LBD or PPARγ-LBD (Cayman chemical, MI, USA) were assayed using SPR-based Biacore T100 (GE Healthcare/Biacore, Uppsala, Sweden) as described previously, [20].

[2] = biological target: T2, hPPARα-LBD (Homo sapiens, UniProt Q07869); assay: Ligand binding assay with SPR (Biacore T100); details: steady state affinity fitting
T2 construct: purchased Cayman chemical
T2 sequence (Q07869 239-466 limits assumed): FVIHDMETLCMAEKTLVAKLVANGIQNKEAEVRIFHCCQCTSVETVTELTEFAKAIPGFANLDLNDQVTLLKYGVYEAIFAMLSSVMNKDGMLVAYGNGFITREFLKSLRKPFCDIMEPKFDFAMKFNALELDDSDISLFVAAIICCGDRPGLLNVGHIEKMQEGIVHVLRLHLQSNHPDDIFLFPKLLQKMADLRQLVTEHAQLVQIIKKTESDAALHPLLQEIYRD
Procedure: as §1

[3] = biological target: T3, hPPARγ-LBD (Homo sapiens, UniProt P37231); assay: Ligand binding assay with SPR (Biacore T100); details: steady state affinity fitting
T3 construct: purchased Cayman chemical
T3 sequence (P37231 238-503 limits assumed): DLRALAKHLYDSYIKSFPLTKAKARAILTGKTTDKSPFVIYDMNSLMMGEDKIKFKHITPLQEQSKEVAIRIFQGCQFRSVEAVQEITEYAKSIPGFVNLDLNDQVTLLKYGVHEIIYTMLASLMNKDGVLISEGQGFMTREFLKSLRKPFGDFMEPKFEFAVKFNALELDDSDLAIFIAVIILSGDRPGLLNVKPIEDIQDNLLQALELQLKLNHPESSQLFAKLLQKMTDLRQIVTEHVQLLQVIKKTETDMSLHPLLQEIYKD
Procedure: as §1

[4] = test system: Kunming mice; details: stated in Introduction, no method given; cited from earlier work
[5] = biological target: T4, hPPARδ (Homo sapiens, UniProt Q03181); assay: In vitro transactivation assay, GAL4-hPPAR luciferase reporter in HEK-293 cells; format: cell-based; details: HEK-293, 24 h treatment
T4 sequence (Q03181 171-441 limits assumed): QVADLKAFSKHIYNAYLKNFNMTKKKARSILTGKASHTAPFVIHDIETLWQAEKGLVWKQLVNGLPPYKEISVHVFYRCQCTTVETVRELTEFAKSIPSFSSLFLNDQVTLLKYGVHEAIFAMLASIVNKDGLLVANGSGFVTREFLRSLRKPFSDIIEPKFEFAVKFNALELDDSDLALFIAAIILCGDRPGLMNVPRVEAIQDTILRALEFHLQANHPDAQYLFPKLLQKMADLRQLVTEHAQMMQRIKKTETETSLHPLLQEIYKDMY
Procedure: (§2) Transactivation of PPARs was analyzed in a cell-based luciferase reporter assay using HEK-293 cells transiently transfected to express hPPAR-GAL4 chimeric receptors with plasmids GAL4-hPPAR α, γ, or δ, and pUAS (5x)-tk-luc receptor vector as previously described. 24 h after transfection, cells were treated with the indicated compounds, followed by the measurement of luciferase activity 24 h later. Mean values represent those obtained from at least three independent experiments performed in triplicate and normalized by the Renilla luciferase reading.
(§3) HEK-293 cells transiently transfected to express hPPAR-GAL4 chimeric receptors with plasmids GAL4-hPPAR α, γ, or δ, and pUAS (5x)-tk-luc receptor vector. 24 h after transfection, cells were treated with the indicated compounds at various concentrations followed by the measurement of luciferase activity 24 h after treatment. The results shown are the mean values obtained from at least three independent experiments performed in triplicate normalized by the Renilla luciferase reading.

[6] = biological target: T5, hPPARγ (Homo sapiens, UniProt P37231); assay: as above; format: cell-based; details: HEK-293, 24 h treatment
T5 sequence (P37231 238-505 limits assumed): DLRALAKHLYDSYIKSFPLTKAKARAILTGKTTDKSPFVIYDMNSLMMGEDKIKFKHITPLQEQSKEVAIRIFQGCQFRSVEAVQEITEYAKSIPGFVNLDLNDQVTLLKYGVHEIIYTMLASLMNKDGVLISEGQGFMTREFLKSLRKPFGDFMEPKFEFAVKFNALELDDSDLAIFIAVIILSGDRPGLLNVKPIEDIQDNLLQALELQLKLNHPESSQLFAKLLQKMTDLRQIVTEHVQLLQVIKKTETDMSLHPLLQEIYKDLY
Procedure: as §2, §3

[7] = biological target: T6, hPPARα (Homo sapiens, UniProt Q07869); assay: as above; format: cell-based
T6 sequence (Q07869 200-468 limits assumed): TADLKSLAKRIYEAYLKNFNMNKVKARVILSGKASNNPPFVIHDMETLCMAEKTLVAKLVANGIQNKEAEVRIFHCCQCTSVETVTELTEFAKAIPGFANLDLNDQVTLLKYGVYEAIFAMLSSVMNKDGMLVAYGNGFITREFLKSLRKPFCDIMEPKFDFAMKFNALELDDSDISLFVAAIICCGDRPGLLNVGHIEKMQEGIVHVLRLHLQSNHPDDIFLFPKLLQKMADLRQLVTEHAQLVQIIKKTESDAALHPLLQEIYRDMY
Procedure: as §2, §3

Structure (SMILES): COc1ccc(/C=C/c2cc(OC)cc(OCCCC(C)(C)C(=O)O)c2)cc1 [ZBH, (E)-5-(3-methoxy-5-(4-methoxystyryl)phenoxy) -2,2-dimethylpentanoic acid]
- Kd [1]: 4.17 µM
- Kd [2]: 0.826 µM
- Kd [3]: 3.9 µM
- oral LD50 [4]: > 1200 mg/kg
- EC50 [5]: 19.2 µM
- EC50 [6]: 25.4 µM
- PPARα transactivation selectivity over other PPAR subtypes (EC50 fold) ([7]; Discussion): 11 fold
- maximal activation of PPARα ([7]; HEK-293): approximately 11 fold
- EC50 ([7]; HEK-293, 24 h treatment): 1.75 µM
- PPARα activation potency (EC50) relative to bezafibrate ([7]; ZBH vs bezafibrate): 21 fold
- PPARα activation exceeds PPARγ activation ([7]; selectivity α over γ): 14 fold
- PPARα activation exceeds PPARδ activation ([7]; selectivity α over δ): 11 fold
